Measured values published in PMC9516332 (Frontiers in Oncology, 2022).
pIC50: −log10 of the molar value. Where two headings read alike, the source gives them in different places.

How the values were obtained:
[1] = target: panel of 255 wild-type kinases (Homo sapiens, UniProt Q13557); conditions: cited from earlier work
[2] = target: panel of 255 wild-type kinases (Homo sapiens, UniProt Q8IU85); conditions: cited from earlier work
[3] = target: panel of 255 wild-type kinases (Homo sapiens, UniProt O43683); conditions: cited from earlier work
[4] = target: panel of 255 wild-type kinases (Homo sapiens, UniProt P23443); conditions: cited from earlier work
[5] = target: panel of 255 wild-type kinases (Homo sapiens, UniProt Q9UPE1); conditions: cited from earlier work
[6] = target: panel of 255 wild-type kinases (Homo sapiens, UniProt P14616); conditions: cited from earlier work
[7] = target: panel of 255 wild-type kinases (Homo sapiens, UniProt O60674); conditions: cited from earlier work
[8] = target: panel of 255 wild-type kinases (Homo sapiens, UniProt Q14289); conditions: cited from earlier work
[9] = target: panel of 255 wild-type kinases (Homo sapiens, UniProt Q13153); conditions: cited from earlier work
[10] = target: panel of 255 wild-type kinases (Homo sapiens, UniProt P06493); conditions: cited from earlier work
[11] = target: panel of 255 wild-type kinases (Homo sapiens, UniProt P04629); conditions: cited from earlier work
[12] = target: panel of 255 wild-type kinases (Homo sapiens, UniProt P10721); conditions: cited from earlier work
[13] = target: panel of 255 wild-type kinases (Homo sapiens, UniProt P49674); conditions: cited from earlier work
[14] = target: panel of 255 wild-type kinases (Homo sapiens, UniProt P08922); conditions: cited from earlier work
[15] = target: panel of 255 wild-type kinases (Homo sapiens, UniProt Q9P0L2); conditions: cited from earlier work
[16] = target: panel of 255 wild-type kinases (Homo sapiens, UniProt P49760); conditions: cited from earlier work
[17] = target: panel of 255 wild-type kinases (Homo sapiens, UniProt Q16539); conditions: cited from earlier work
[18] = target: panel of 255 wild-type kinases (Homo sapiens, UniProt Q00535); conditions: cited from earlier work
[19] = target: panel of 255 wild-type kinases (Homo sapiens, UniProt P07947); conditions: cited from earlier work
[20] = system: EGFR-mutant cell lines; assay: Cell viability assay, EGFR-mutant versus EGFR wild-type cell lines; assay type: cell-based
[21] = system: FGFR-altered cell lines; assay: Cell viability assay, FGFR-altered versus FGFR wild-type cell lines; assay type: cell-based; conditions: for pIC50: read-out: average IC50 in the eight FGFR-altered cell lines; for higher potency in FGFR-altered compared to FGFR wild-type cell lines: on average; for higher potency in FGFR-altered compared to FGFR wild-type cell lines / activity in FGFR-altered versus wild-type cell lines: MANOVA
[22] = CaMK2δ kinase assay, 1 µmol/L single concentration, ref DOI: 10.1158/1535-7163.MCT-18-0877
[23] = CaMK1δ kinase assay, 1 µmol/L single concentration, ref DOI: 10.1158/1535-7163.MCT-18-0877
[24] = BUB1/BUB3 kinase assay, 1 µmol/L single concentration, ref DOI: 10.1158/1535-7163.MCT-18-0877
[25] = p70S6K, 1 µmol/L single concentration, ref DOI: 10.1158/1535-7163.MCT-18-0877
[26] = MSSK1, 1 µmol/L single concentration, ref DOI: 10.1158/1535-7163.MCT-18-0877
[27] = kinase IRR, 1 µmol/L single concentration, ref DOI: 10.1158/1535-7163.MCT-18-0877
[28] = kinase JAK2, 1 µmol/L single concentration, ref DOI: 10.1158/1535-7163.MCT-18-0877
[29] = kinase PYK2, 1 µmol/L single concentration, ref DOI: 10.1158/1535-7163.MCT-18-0877
[30] = PAK1, 1 µmol/L single concentration, ref DOI: 10.1158/1535-7163.MCT-18-0877
[31] = CDC2/CycB1 kinase assay, 1 µmol/L single concentration, ref DOI: 10.1158/1535-7163.MCT-18-0877
[32] = kinase TRKA, 1 µmol/L single concentration, ref DOI: 10.1158/1535-7163.MCT-18-0877
[33] = kinase KIT, 1 µmol/L single concentration, ref DOI: 10.1158/1535-7163.MCT-18-0877
[34] = kinase CK1ε, 1 µmol/L single concentration, ref DOI: 10.1158/1535-7163.MCT-18-0877
[35] = kinase ROS, 1 µmol/L single concentration, ref DOI: 10.1158/1535-7163.MCT-18-0877
[36] = MARK1, 1 µmol/L single concentration, ref DOI: 10.1158/1535-7163.MCT-18-0877
[37] = kinase CLK2, 1 µmol/L single concentration, ref DOI: 10.1158/1535-7163.MCT-18-0877
[38] = p38α, 1 µmol/L single concentration, ref DOI: 10.1158/1535-7163.MCT-18-0877
[39] = CDK5/p25 kinase assay, 1 µmol/L single concentration, ref DOI: 10.1158/1535-7163.MCT-18-0877
[40] = kinase YES, 1 µmol/L single concentration, ref DOI: 10.1158/1535-7163.MCT-18-0877

## CC#CC(=O)N1CCC[C@H]1c1nc(-c2ccc(C(=O)Nc3ccccn3)cc2)c2c(N)nccn12 [acalabrutinib]
[1]; [22]
  %-inhibition CaMK2δ: -3.53%
[2]; [23]
  %-inhibition CaMK1δ: -5%
[3]; [24]
  %-inhibition BUB1/BUB3: 5.51%
[4]; [25]
  %-inhibition, p70S6K: -14%
[5]; [26]
  %-inhibition, MSSK1: -5%
[6]; [27]
  %-inhibition at 1 µmol/L, IRR: -0.87%
[7]; [28]
  %-inhibition at 1 µmol/L, JAK2: -9%
[8]; [29]
  %-inhibition at 1 µmol/L, PYK2: -3.55%
[9]; [30]
  %-inhibition, PAK1: -0.369%
[10]; [31]
  %-inhibition CDC2/CycB1: -0.397%
[11]; [32]
  %-inhibition at 1 µmol/L, TRKA: 13%
[12]; [33]
  %-inhibition at 1 µmol/L, KIT: 3%
[13]; [34]
  %-inhibition at 1 µmol/L, CK1ε: -10%
[14]; [35]
  %-inhibition at 1 µmol/L, ROS: 1.79%
[15]; [36]
  %-inhibition, MARK1: -3.49%
[16]; [37]
  %-inhibition at 1 µmol/L, CLK2: -7%
[17]; [38]
  %-inhibition, p38α: -0.752%
[18]; [39]
  %-inhibition CDK5/p25: -19%
[19]; [40]
  %-inhibition at 1 µmol/L, YES: 22%
[20]; MANOVA
  preferential targeting of EGFR-mutant cell lines: did not significantly target

## COc1cc(N2CCC(N3CCN(C)CC3)CC2)ccc1Nc1ncc(Cl)c(Nc2ccccc2P(C)(C)=O)n1 [brigatinib]
[1]
  %-inhibition CaMK2δ: 101%
[2]
  %-inhibition CaMK1δ: 62%
[3]
  %-inhibition BUB1/BUB3: 14%
[4]
  %-inhibition, p70S6K: 33%
[5]
  %-inhibition, MSSK1: 5.3%
[6]
  %-inhibition at 1 µmol/L, IRR: 99%
[7]
  %-inhibition at 1 µmol/L, JAK2: 90%
[8]
  %-inhibition at 1 µmol/L, PYK2: 104%
[9]
  %-inhibition, PAK1: 4.27%
[10]
  %-inhibition CDC2/CycB1: 61%
[11]
  %-inhibition at 1 µmol/L, TRKA: 83%
[12]
  %-inhibition at 1 µmol/L, KIT: 51%
[13]
  %-inhibition at 1 µmol/L, CK1ε: 0.661%
[14]
  %-inhibition at 1 µmol/L, ROS: 101%
[15]
  %-inhibition, MARK1: 96%
[16]
  %-inhibition at 1 µmol/L, CLK2: 91%
[17]
  %-inhibition, p38α: -0.837%
[18]
  %-inhibition CDK5/p25: 40%
[19]
  %-inhibition at 1 µmol/L, YES: 102%

## O=C(c1ccc(F)c(F)c1Nc1ccc(I)cc1F)N1CC(O)([C@@H]2CCCCN2)C1 [cobimetinib]
[1]; [22]
  %-inhibition CaMK2δ: 1.1%
[2]; [23]
  %-inhibition CaMK1δ: 1%
[3]; [24]
  %-inhibition BUB1/BUB3: 6.61%
[4]; [25]
  %-inhibition, p70S6K: 19%
[5]; [26]
  %-inhibition, MSSK1: 1.46%
[6]; [27]
  %-inhibition at 1 µmol/L, IRR: -0.403%
[7]; [28]
  %-inhibition at 1 µmol/L, JAK2: 1.2%
[8]; [29]
  %-inhibition at 1 µmol/L, PYK2: 2.5%
[9]; [30]
  %-inhibition, PAK1: 3.21%
[10]; [31]
  %-inhibition CDC2/CycB1: -0.108%
[11]; [32]
  %-inhibition at 1 µmol/L, TRKA: 18%
[12]; [33]
  %-inhibition at 1 µmol/L, KIT: -17%
[13]; [34]
  %-inhibition at 1 µmol/L, CK1ε: 2.44%
[14]; [35]
  %-inhibition at 1 µmol/L, ROS: 3%
[15]; [36]
  %-inhibition, MARK1: -5%
[16]; [37]
  %-inhibition at 1 µmol/L, CLK2: 0.147%
[17]; [38]
  %-inhibition, p38α: -5.49%
[18]; [39]
  %-inhibition CDK5/p25: -7%
[19]; [40]
  %-inhibition at 1 µmol/L, YES: -0.706%

## COc1cc2ncnc(Nc3ccc(F)c(Cl)c3)c2cc1NC(=O)/C=C/CN1CCCCC1 [dacomitinib]
[20]; on average, MANOVA
  lower IC50 (higher potency) in EGFR-mutant compared to EGFR wild-type cell lines: about 110 fold

## C=CC(=O)N1CCC[C@@H](n2nc(-c3ccc(Oc4ccccc4)cc3)c3c(N)ncnc32)C1 [ibrutinib]
[1]; [22]
  %-inhibition CaMK2δ: -0.826%
[2]; [23]
  %-inhibition CaMK1δ: 5%
[3]; [24]
  %-inhibition BUB1/BUB3: 5%
[4]; [25]
  %-inhibition, p70S6K: 19%
[5]; [26]
  %-inhibition, MSSK1: 1.54%
[6]; [27]
  %-inhibition at 1 µmol/L, IRR: 12%
[7]; [28]
  %-inhibition at 1 µmol/L, JAK2: 0.407%
[8]; [29]
  %-inhibition at 1 µmol/L, PYK2: 3.37%
[9]; [30]
  %-inhibition, PAK1: 6.57%
[10]; [31]
  %-inhibition CDC2/CycB1: -1%
[11]; [32]
  %-inhibition at 1 µmol/L, TRKA: 59%
[12]; [33]
  %-inhibition at 1 µmol/L, KIT: -4.53%
[13]; [34]
  %-inhibition at 1 µmol/L, CK1ε: 50%
[14]; [35]
  %-inhibition at 1 µmol/L, ROS: 5%
[15]; [36]
  %-inhibition, MARK1: 2.46%
[17]; [38]
  %-inhibition, p38α: -2.71%
[18]; [39]
  %-inhibition CDK5/p25: -5%
[20]; on average, MANOVA
  lower IC50 (higher potency) in EGFR-mutant compared to EGFR wild-type cell lines: 28 fold

## CCN1CCN(c2ccc(Nc3cc(N(C)C(=O)Nc4c(Cl)c(OC)cc(OC)c4Cl)ncn3)cc2)CC1 [infigratinib]
[21]; average IC50
  potency in FGFR-altered cell lines compared to erdafitinib and pemigatinib: more than three-fold lower potency
[21]; geometric average
  pIC50: 7.70
[21]
  higher potency in FGFR-altered compared to FGFR wild-type cell lines: 130 fold

## C=CC(=O)Nc1cc(Nc2nccc(-c3cn(C)c4ccccc34)n2)c(OC)cc1N(C)CCN(C)C [osimertinib]
[1]; [22]
  %-inhibition CaMK2δ: 19%
[2]; [23]
  %-inhibition CaMK1δ: 9%
[3]; [24]
  %-inhibition BUB1/BUB3: 11%
[4]; [25]
  %-inhibition, p70S6K: 21%
[5]; [26]
  %-inhibition, MSSK1: 0.582%
[6]; [27]
  %-inhibition at 1 µmol/L, IRR: 77%
[7]; [28]
  %-inhibition at 1 µmol/L, JAK2: 4%
[8]; [29]
  %-inhibition at 1 µmol/L, PYK2: 62%
[9]; [30]
  %-inhibition, PAK1: -44%
[10]; [31]
  %-inhibition CDC2/CycB1: 23%
[11]; [32]
  %-inhibition at 1 µmol/L, TRKA: 27%
[12]; [33]
  %-inhibition at 1 µmol/L, KIT: -13%
[13]; [34]
  %-inhibition at 1 µmol/L, CK1ε: 18%
[14]; [35]
  %-inhibition at 1 µmol/L, ROS: 101%
[15]; [36]
  %-inhibition, MARK1: 19%
[16]; [37]
  %-inhibition at 1 µmol/L, CLK2: 38%
[17]; [38]
  %-inhibition, p38α: -6%
[18]; [39]
  %-inhibition CDK5/p25: -0.719%
[19]; [40]
  %-inhibition at 1 µmol/L, YES: 13%
[20]
  lower IC50 (higher potency) in EGFR-mutant compared to EGFR wild-type cell lines: 33 fold

## CCN1C(=O)N(c2c(F)c(OC)cc(OC)c2F)Cc2cnc3[nH]c(CN4CCOCC4)cc3c21 [pemigatinib]
[21]
  higher potency in FGFR-altered compared to FGFR wild-type cell lines: over 500 fold
  pIC50: 8.37

## CO[C@]1(C(=O)N[C@@H](C)c2ccc(-n3cc(F)cn3)nc2)CC[C@H](c2nc(C)cc(Nc3cc(C)[nH]n3)n2)CC1 [pralsetinib]
[21]
  activity in FGFR-altered versus wild-type cell lines: around ten times more active

## COc1ccc(CN2C3CC2CN(c2ccc(-c4cc(OCC(C)(C)O)cn5ncc(C#N)c45)cn2)C3)cn1 [selpercatinib]
[21]
  activity in FGFR-altered versus wild-type cell lines: around ten times more active

## C=CC(=O)N1CCC([C@@H]2CCNc3c(C(N)=O)c(-c4ccc(Oc5ccccc5)cc4)nn32)CC1 [zanubrutinib]
[20]; on average, MANOVA
  lower IC50 (higher potency) in EGFR-mutant compared to EGFR wild-type cell lines: 8 fold
